Series [1] relates to rat sponge model (angiogenesis). Description: Angiogenesis promotion by compound A in rat sponge model (embedded gelatin sponge; hemoglobin in sponge and photograph). Type of series: in vivo. The protocol:
Rats were anesthetized by intraperitoneal administration of sodium pentobarbital (50 mg/kg), and the dorsal median line was incised for about 1 cm and an air pocket was made subcutaneously at about 2.5 cm toward the tail side with a Kocher clamp. A hemostatic gelatin sponge (Spongel®, 10 mm×10 mm×7 mm; manufactured by Yamanouchi Pharmaceutical Co., Ltd.) impregnated with physiological saline was embedded therein. The opening was sutured and antisepticized to give a test animal model.
As a reagent, compound A (4-bromo-6-[3-(4-chlorophenyl)-propoxy]-5-(3-pyridylmethylamino)-3-(2H)-pyridazinone hydrochloride, 100 mg) produced by a conventional method was suspended in 0.5% methylcellulose solution (100 ml) in a mortar and used.
As a control, a vehicle (0.5% methylcellulose solution) was used. The vehicle was obtained by dissolving methylcellulose (5 g, manufactured by Kishida Chemical Industries, Ltd.) in distilled water (1000 ml).
The reagent (compound A) and the vehicle were orally administered repeatedly from the day of sponge embedding at a dose of 10 ml/kg once a day for 4 days or 7 days. The administration was performed 30 minutes before anesthetizing the animal on the very day of embedding, and the sponge was removed on the next day of the final administration.
After 4 days or 7 days from the embedding, an excess amount of pentobarbitalwas intravenously injected to the animals for euthanasia. The back was opened, and the tissue surrounding the embedded sponge was removed and the surface of the sponge was photographed. The sponge was taken out and placed in a 0.1M aqueous ammonia (2 ml), which was stood for 4 hr to extract hemoglobin in the sponge. The extract (100 μl) was taken, and hemoglobin was quantitated using an assay kit (hemoglobin B-TESTWAKO; manufactured by Wako Pure Chemical Industries, Ltd.) and used as the index of angiogenesis. The amount of hemoglobin in the sponge was calculated by the following formula.
Amount of hemoglobin in sponge (mg/sponge)=hemoglobin (mg) in extract (100
μl)×20 (total extract 2 ml)
The obtained data were expressed in mean±standard error. For the evaluation of the angiogenic effect, an unpaired t-test was performed using the animals administered with the drug for 4 days or 7 days and respective vehicle groups as control to examine significant difference. The significance was ascribed at less than 5% risk rate.

The test system of series [2] is rat sponge model (angiogenic effect of b-FGF). The series can be described thus: Potentiation of angiogenic effect of b-FGF by compound A in rat sponge model (b-FGF 1 μg/sponge). As to conditions: for Hemoglobin in sponge at 4 days after embedding: mean±standard error, number of animals 10. In kind it is in vivo. The protocol:
(§1) The test animal models were prepared in the same manner as in Experimental Example 1.
As a reagent, compound A (4-bromo-6-[3-(4-chlorophenyl)-propoxy]-5-(3-pyridylmethylamino)-3-(2H)-pyridazinone hydrochloride, 50 mg) produced by a conventional method was suspended in 0.5% methylcellulose solution (100 ml) in a mortar and used.
The vehicle (0.5% methylcellulose solution) was obtained by dissolving methylcellulose (5 g, manufactured by Kishida Chemical Industries, Ltd.) in distilled water (1000 ml).
A 0.1% bovine serum albumin (BSA)-physiological saline solution was prepared by dissolving BSA (0.1 g, Sigma) in physiological saline (100 Ml).
A b-FGF solution was prepared by dissolving recombinant b-FGF (20 μg, manufactured by BTI) in 0.1% BSA-physiological saline solution (2 ml).
A hemostatic gelatin sponge was the same as that used in Experimental Example 1.
The test group was divided into 3 groups. A sponge wetted with 100 μl of 0.1% BSA-physiological saline solution was embedded in group 1. A sponge (1 μg b-FGF/sponge) wetted with b-FGF solution (100 μl) was embedded in group 2 and group 3.
The vehicle was orally administered to group 1 and group 2, and the reagent (compound A) was orally administered to group 3 repeatedly from the day of sponge embedding at the dose of 10 ml/kg twice a day for 4 days.
In every test group, the administration began from the evening (single administration) of the very day of embedding. The time of administration of the drug was around 9 a.m. for the first administration and around 7 p.m. for the second administration. In consideration of the effect of the drug, the drug was not administered on the very day of sponge removal (7 times of administration in total).
After 4 days from the embedding, an excess amount of pentobarbital was intravenously injected to the animals for euthanasia. The back was opened, and the tissue surrounding the embedded sponge was removed and the surface of the sponge was photographed. The sponge was taken out and hemoglobin in the sponge was calculated in the same manner as in Experimental Example 1.
The obtained data were expressed in mean±standard error. For the evaluation of the angiogenic effect, a multiple comparison test by Tukey method was performed to examine significant difference. The significance was ascribed at less than 5% risk rate.

The subject of series [3] is rat sponge model (angiogenesis). The series can be described thus: Relationship between dose and angiogenesis promotion by compound A in rat sponge model. As to conditions: for Hemoglobin amount in sponge vs vehicle (in words): 7 times in total, Dunnett test. Type of series: in vivo. How it is done: as §1
As a reagent, compound A (4-bromo-6-[3-(4-chlorophenyl)-propoxy]-5-(3-pyridylmethylamino)-3-(2H)-pyridazinone hydrochloride, 35 mg) produced by a conventional method was suspended in 0.5% methylcellulose solution (70 ml) in a mortar and used as a 5 mg/kg administration reagent.
This suspension was diluted two-fold and 5-fold with a vehicle (0.5% methylcellulose solution) to give 2.5 mg/kg administration reagent and 1 mg/kg administration reagent (respective dose 10 ml/kg). The vehicle (0.5% methylcellulose solution) was used as a control. The vehicle was obtained by dissolving methylcellulose (5 g, manufactured by Kishida Chemical Industries, Ltd.) in distilled water (1000 ml).
Each reagent (compound A) and the vehicle were orally administered repeatedly (7 times in total) from the day of sponge embedding at a dose of 10 ml/kg twice a day for 4 days. The sponge was removed on the next day of the final administration, and hemoglobin in the sponge was calculated in the same manner as Experimental in Example 1.
Each group contained […] animals and the obtained data were expressed in mean±standard error. For the evaluation of the angiogenic effect, a Dunnett test was performed using the vehicle administration group as a control to examine significant difference. The significance was ascribed at less than 5% risk rate.

Series [4] is described as follows: Hypotensive action in rat. As to conditions: 5 mg/kg, based on vasodilating action. In kind it is in vivo.
The nature of series [5]: Acute toxicity, oral, rat. As to conditions: in vivo, oral administration.
Series [6] can be described thus: Acute toxicity, oral, dog. As to conditions: in vivo, oral administration.
The subject of series [7] is rat and dog. Description: Acute toxicity, oral, rat and dog (overall finding). Type of series: in vivo. As to conditions: oral administration.
Setting [8] is: day 4 and day 7, also seen with vehicle.

As a reminder, the LD50 is the dose at which mortality reaches 50%. `Cl.O=c1[nH]nc(OCCCc2ccc(Cl)cc2)c(NCc2cccnc2)c1Br` [compound A, 4-bromo-6-[3-(4-chlorophenyl)-propoxy]-5-(3-pyridylmethylamino)-3-(2H)-pyridazinone hydrochloride]: the “Time course of amount of hemoglobin in sponge (in words)” value in series [1] (setting [8]) was “showed an increase in the amount of hemoglobin in sponge at day 4 and day 7 of the test, in proportion to the number of days lapsed”. Besides, the “Time course of neovascularized blood vessels on the sponge surface (in words)” value in series [1] (setting [8]) is “showed an increase of neovascularized blood vessels on the sponge surface at day 4 and day 7 of the test in proportion to the number of days lapsed”. Moreover, the “Amount of hemoglobin in sponge vs vehicle (in words)” value in series [1] (day 7 of the test) is recorded as “showed a significant increase as compared to the vehicle administration group”. For the same compound, in series [1] (day 7 of the test, vs vehicle administration group), the “Observation of photograph: neovascularized blood vessels on the sponge surface” value was “showed more neovascularized blood vessels than in the vehicle administration group”. For the same compound, in series [1] (oral, 10 ml/kg (100 mg/100 ml suspension) once a day for 4 days, mean±standard error, number of animals 10, vehicle 6.216 ± 0.903), the “Hemoglobin in sponge, 4 days after embedding” value is on record as 6.255 ± 0.807 mg/sponge. The “Hemoglobin in sponge, 7 days after embedding” value in series [1] (oral, 10 ml/kg (100 mg/100 ml suspension) once a day for 7 days, mean±standard error, number of animals 9, vehicle 9.585 ± 0.774, **p < 0.01 relative to vehicle, unpaired t-test) came to 16.351 ± 1.836 mg/sponge. The “Observation of photograph: neovascularized blood vessels” value in series [2] (day 4, group 3 (b-FGF and compound A, 5 mg/kg, co-administration) vs group 2 (b-FGF alone)) is given as “showed still more neovascularized blood vessels than in group 2”. Moreover, the “Hemoglobin content vs group 1 and group 2 (in words)” value in series [2] (group 3 (b-FGF and compound A, 5 mg/kg, co-administration), day 4) is “showed a significant increase in hemoglobin content as compared to group 1 (0.1% BSA-physiological saline solution group) and group 2 (b-FGF single administration group)”. The “Hemoglobin in sponge at 4 days after embedding” value in series [2] (group 3: compound A 5 mg/kg orally twice a day (7 times in total) plus b-FGF (1 μg/sponge) in sponge, p < 0.01 relative to group 1 and group 2 (Tukey method)) is listed as 14.995 ± 2.307 mg/sponge. The “Hemoglobin amount in sponge vs vehicle (in words)” value in series [3] (2.5 mg/kg orally twice a day) and in series [3] (5 mg/kg orally twice a day) was “showed a significant increase in hemoglobin amount” each time. The “Effect at 5 mg/kg on hemoglobin amount, tendency (in words)” value in series [3] (5 mg/kg, postulated due to decrease in blood flow from hypotensive action) is on record as “the effect tended to weaken somewhat, though a significant difference was found”. Moreover, the “Angiogenesis promotion effect at a dose substantially free from hypotensive action (in words)” value in series [3] (rat) is reported as “superior angiogenesis promotion effect at a dose substantially free from hypotensive action”. Further, the Hypotensive action result in series [4] is reported as “causes hypotensive action in rat”. The LD50 in series [5] and in series [6] was not below 2000 mg/kg throughout. The “Toxicity (in words)” value in series [7] is given as “extremely low toxic”.
Regarding “b-FGF: recombinant b-FGF (20 μg, manufactured by BTI); basic fibroblast growth factor”, the “Observation of photograph: neovascularized blood vessels” value in series [2] (day 4, group 2 (b-FGF single administration) vs group 1 (BSA-physiological saline)) is recorded as “visually showed more neovascularized blood vessels than in group 1”. The “Hemoglobin in sponge at 4 days after embedding” value in series [2] (group 2: b-FGF (1 μg/sponge) in sponge, vehicle orally, group 1 (BSA-saline) 5.503 ± 0.562) was found to be 7.285 mg/sponge.
